Data on 7 substances can be found in ChEMBL document CHEMBL4152371, “A truncated RHAMM protein for discovering novel therapeutic peptides” (Bioorg Med Chem, 2018).

By Kd is commonly meant the free concentration of one partner at which half of the binding sites on the other are occupied at equilibrium, for simple one-to-one binding.

The source made the active and inactive calls. The rule behind the calls is not given here.

In one assay the target is T1, Hyaluronan mediated motility receptor (Homo sapiens) (UniProt O75330).
T1 sequence (whole entry): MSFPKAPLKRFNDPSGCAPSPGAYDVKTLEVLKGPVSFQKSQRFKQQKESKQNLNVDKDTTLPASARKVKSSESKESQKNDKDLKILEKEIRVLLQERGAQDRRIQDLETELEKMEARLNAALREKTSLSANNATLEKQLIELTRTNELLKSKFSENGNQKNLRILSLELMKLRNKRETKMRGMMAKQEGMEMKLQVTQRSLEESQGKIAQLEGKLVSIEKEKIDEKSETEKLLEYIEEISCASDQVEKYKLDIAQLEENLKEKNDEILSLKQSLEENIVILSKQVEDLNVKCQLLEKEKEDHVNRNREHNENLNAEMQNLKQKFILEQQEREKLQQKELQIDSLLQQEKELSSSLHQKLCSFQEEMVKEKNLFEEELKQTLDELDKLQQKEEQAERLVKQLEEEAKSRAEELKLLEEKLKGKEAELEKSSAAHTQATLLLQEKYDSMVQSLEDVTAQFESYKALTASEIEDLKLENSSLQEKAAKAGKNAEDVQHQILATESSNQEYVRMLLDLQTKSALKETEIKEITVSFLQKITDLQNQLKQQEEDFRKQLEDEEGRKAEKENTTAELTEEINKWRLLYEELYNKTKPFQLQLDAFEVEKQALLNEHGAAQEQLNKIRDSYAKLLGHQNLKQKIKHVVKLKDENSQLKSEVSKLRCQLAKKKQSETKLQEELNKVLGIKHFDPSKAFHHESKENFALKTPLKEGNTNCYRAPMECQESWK
The assay can be described thus: Inhibition of C-terminal His-tagged 7 kDa RHAMM (unknown origin) binding to HA assessed as association constant at 1000 nM after 240 secs by SPR method. Background: In SPR one partner is held on a chip, and binding of the other changes the refractive index at the surface.
Regarding H-GEFEEEAEEEVA-NH2, the K is 1.6 ×10⁴ /M.s.
On to H-FTEAESNMNDLV-NH2, for which the K was 2 ×10⁴ /M.s.
Consider H-SVEAEAEEGEEY-NH2, for which the K worked out at 1.3 ×10⁴ /M.s.
On the same count and under the same terms, under H-VEGEGEEEGEEY-NH2 stands 4.1 ×10⁴ /M.s; under H-EEDFGEEAEEEA-NH2, 4 ×10⁴ /M.s; under H-EAFEDEEEEIDG-NH2, 3.4 ×10⁴ /M.s.

Another assay addresses T1, Hyaluronan mediated motility receptor (Homo sapiens). The experiment in a line: Inhibition of C-terminal His-tagged 7 kDa RHAMM (unknown origin) binding to HA assessed as association constant at 750 nM after 240 secs by SPR method.
For the substance H-GEFEEEAEEEVA-NH2, the K was 1.2 ×10⁴ /M.s.
With H-FTEAESNMNDLV-NH2, the K was 3.5 ×10⁴ /M.s.
On the same count and under the same terms, under H-SVEAEAEEGEEY-NH2 stands 1.9 ×10⁴ /M.s.
On to H-VEGEGEEEGEEY-NH2, for which the K turned out to be 5 ×10⁴ /M.s.
With H-EEDFGEEAEEEA-NH2, the K stood at 3.3 ×10⁴ /M.s.
Turning to H-EAFEDEEEEIDG-NH2, the K turned out to be 2.9 ×10⁴ /M.s.

The next assay shares this target. The experiment in a line: Inhibition of C-terminal His-tagged 7 kDa RHAMM (unknown origin) binding to HA assessed as association constant at 500 nM after 240 secs by SPR method.
On to H-GEFEEEAEEEVA-NH2, for which the K worked out at 1 ×10⁴ /M.s.
In the case of H-FTEAESNMNDLV-NH2, the K came to 4.9 ×10⁴ /M.s.
For the substance H-SVEAEAEEGEEY-NH2, the K was determined as 2.3 ×10⁴ /M.s.
Consider H-VEGEGEEEGEEY-NH2, for which the K was determined as 5.8 ×10⁴ /M.s.
On the same count and under the same terms, under H-EEDFGEEAEEEA-NH2 stands 3 ×10⁴ /M.s; under H-EAFEDEEEEIDG-NH2, 0.9 ×10⁴ /M.s.

A further assay shares this target. The assay can be described thus: Inhibition of C-terminal His-tagged 7 kDa RHAMM (unknown origin) binding to HA assessed as association constant at 100 nM after 240 secs by SPR method.
As to H-GEFEEEAEEEVA-NH2, the K is 1.5 ×10⁴ /M.s.
Take H-FTEAESNMNDLV-NH2: the K was found to be 0.1 ×10⁴ /M.s.
Regarding H-SVEAEAEEGEEY-NH2, the K was determined as 1.4 ×10⁴ /M.s.
On the same count and under the same terms, under H-VEGEGEEEGEEY-NH2 stands 0.2 ×10⁴ /M.s; under H-EEDFGEEAEEEA-NH2, 1.4 ×10⁴ /M.s.
The same measure, in the same setting: then H-EAFEDEEEEIDG-NH2, with 3.1 ×10⁴ /M.s.

For a further assay the target is unchanged. The assay can be described thus: Inhibition of C-terminal His-tagged 7 kDa RHAMM (unknown origin) binding to HA assessed as association constant at 10 nM after 240 secs by SPR method.
H-GEFEEEAEEEVA-NH2: the K amounted to 0.22 ×10⁴ /M.s.
As for H-FTEAESNMNDLV-NH2, the K stood at 0.5 ×10⁴ /M.s.
On to H-SVEAEAEEGEEY-NH2, for which the K stood at 0.16 ×10⁴ /M.s.
Turning to H-VEGEGEEEGEEY-NH2, the K amounted to 1.6 ×10⁴ /M.s.
Regarding H-EEDFGEEAEEEA-NH2, the K is 2.3 ×10⁴ /M.s.
For the substance H-EAFEDEEEEIDG-NH2, the K is 3.1 ×10⁴ /M.s.

A further assay shares this target. The experiment in a line: Inhibition of C-terminal His-tagged 7 kDa RHAMM (unknown origin) binding to HA assessed as association constant at 1 nM after 240 secs by SPR method.
For H-GEFEEEAEEEVA-NH2, the K is 0.48 ×10⁴ /M.s.
Consider H-FTEAESNMNDLV-NH2, for which the K is 0.8 ×10⁴ /M.s.
Turning to H-SVEAEAEEGEEY-NH2, the K was 0.02 ×10⁴ /M.s.
As for H-VEGEGEEEGEEY-NH2, the K came out at 0.7 ×10⁴ /M.s.
Regarding H-EEDFGEEAEEEA-NH2, the K was 5.7 ×10⁴ /M.s.
For H-EAFEDEEEEIDG-NH2, the K turned out to be 3.7 ×10⁴ /M.s.

The target in a further assay is T2, Hyaluronan mediated motility receptor (Homo sapiens, UniProt O75330).
T2 sequence (O75330 whole entry): T1 sequence (whole entry)
The assay can be described thus: Inhibition of C-terminal His-tagged 7 kDa RHAMM (unknown origin) binding to HA after 240 secs by SPR method.
On to H-GEFEEEAEEEVA-NH2, for which the dissociation constant Kd amounted to 265 nM.
For the substance H-FTEAESNMNDLV-NH2, the dissociation constant Kd worked out at 20.9 nM.
Same read-out and setting: then H-SVEAEAEEGEEY-NH2, with 31.9 nM; and H-VEGEGEEEGEEY-NH2, with 43.3 nM; and H-EEDFGEEAEEEA-NH2, with 202 nM.
H-EAFEDEEEEIDG-NH2 yielded a Kd of 289 nM.

A further assay deals with T2, Hyaluronan mediated motility receptor. The assay can be described thus: Inhibition of recombinant RHAMM (unknown origin) binding to HA after 240 secs by SPR method.
In the case of H-GEFEEEAEEEVA-NH2, the dissociation constant (Kd) came out at 130 nM.
On to H-FTEAESNMNDLV-NH2, for which the Kd turned out to be 30.2 nM.
H-SVEAEAEEGEEY-NH2: the Kd was 331 nM.
As to H-VEGEGEEEGEEY-NH2, the dissociation constant (Kd) was found to be 24.2 nM.
Consider H-EEDFGEEAEEEA-NH2, for which the dissociation constant (Kd) was determined as 32.6 nM.
Same read-out and setting: then H-EAFEDEEEEIDG-NH2, with 211 nM.

Another assay concerns the target T1, Hyaluronan mediated motility receptor (Homo sapiens). The assay can be described thus: Inhibition of C-terminal His-tagged 7 kDa RHAMM (unknown origin) binding to HA at 1 to 1000 nM after 240 secs by SPR method.
For H-GEFSEAREDMAA-NH2, the inhibition entry is “inactive”.
